Results taken from patent publication US8071625B2, “Certain chemical entities, compositions, and methods” (Cytokinetics, Inc., priority 2006, dated 2011).
pIC50: −log10 of the molar value.

Biological target: T1, crosslinked smooth muscle actomyosin (chicken gizzard smooth muscle myosin subfragment-1 crosslinked to cardiac or skeletal actin) (Gallus gallus, UniProt P10587)
T1 construct: chicken gizzard smooth muscle myosin subfragment-1; from tissue; host or cells: chicken gizzard
Test: Lead optimization pyruvate kinase/horseradish peroxidase/pyruvate oxidase-coupled ATPase assay (compound dose response)
Type: biochemical
Conditions: read-out: IC50 Arithmetic Mean
Experimental: Screening assays were performed using a pyruvate kinase and lactate dehydrogenase-coupled ATPase assay containing the following reagents: Potassium PIPES (50 mM), MgCl2 (3 mM), KCl (100 mM), ATP (0.15 mM), DTT (1 mM), BSA (0.1 mg/ml), NADH (0.5 mM), PEP (1.5 mM), pyruvate kinase (4 U/ml), lactate dehydrogenase (8 U/ml), and antifoam (50 ppm) (concentrations expressed are final assay concentrations). The pH was adjusted to 6.80 at 22° C. by addition of potassium hydroxide. Lead optimization assays were performed with a more sensitive pyruvate kinase/horseradish peroxidase/pyruvate oxidase-coupled ATPase assay containing the following reagents: Potassium PIPES (12 mM), MgCl2 (2 mM), KCl (100 mM), ATP (0.15 mM), BSA (0.05 mg/ml), potassium phosphate (2 mM), amplex red (0.1 mM), PEP (0.1 mM), pyruvate kinase (4 U/ml), horseradish peroxidase (0.5 U/ml), pyruvate oxidase (0.5 U/ml), and antifoam (50 ppm) (concentrations expressed are final assay concentrations). The pH was adjusted to 7.00 at 22° C. by addition of potassium hydroxide.
The protein components specific to this assay are chicken gizzard smooth muscle myosin subfragment-1 that has been chemically crosslinked to either cardiac or skeletal actin using an excess of 1-Ethyl-3-[3-dimethylaminopropyl]carbodiimide hydrochloride and N-hydroxysuccinimide. The exact concentration of the crosslinked smooth muscle myosin in the assay is determined empirically, by titration to achieve a desired rate of ATP hydrolysis. The concentration varies between protein preparations due to variations in the fraction of active molecules in each preparation.
Compound dose response assays are performed by first preparing a dilution series of test compound, each with an assay mixture containing potassium PIPES, MgCl2, KCl, ATP, BSA, potassium phosphate, amplex red, PEP, crosslinked smooth muscle actomyosin (subfragment-1), antifoam, and water. The assay is started by adding an equal volume of solution containing potassium Pipes, MgCl2, KCl, BSA, potassium phosphate, pyruvate kinase, horseradish peroxidase, pyruvate oxidase, antifoam, and water. ATP hydrolysis is monitored by measuring the fluorescence of amplex red (excitation at 480 nm, emission at 615 nm). The resulting dose response curve is fit by the 4 parameter equation y=Bottom+((Top-Bottom)/(1+((IC50/X)^Hill))). The IC50 is defined as the concentration at which ATPase activity is midway between the top and bottom of the dose response curve.

| Compound | pIC50 |
| --- | --- |
| CCc1ccc(NC(=O)OCC2(CC(=O)NCc3ccccc3Cl)CCN(C(=O)CN)CC2)cc1 [2-(1-(2-aminoacetyl)-4-{[N-(4-ethylphenyl)carbamoyloxy]methyl}(4-piperidyl))-N-[(2-chlorophenyl)methyl]acetamide] | 5.43 |
| CCc1ccc(NC(=O)OCC(C)(NC(=O)CN)C(=O)NCc2ccccc2Cl)cc1 (stereo not drawn) [2-(2-aminoacetylamino)-N-[(2-chlorophenyl)methyl]-3-[N-(4-ethylphenyl)carbamoyloxy]-2-methylpropanamide] | 5.40 |
| CCc1ccc(NC(=O)OCCC(NC(=O)CN)C(=O)NCc2ccccc2Cl)cc1 (stereo not drawn) [2-(2-aminoacetylamino)-N-[(2-chlorophenyl)methyl]-4-[N-(4-ethylphenyl)carbamoyloxy]butanamide] | 5.36 |
| CCc1ccc(NC(=O)OCC(C)(NC(=O)[C@@H](N)CO)C(=O)NCc2ccccc2Cl)cc1 (stereo partly drawn) [2-((2S)-2-amino-3-hydroxypropanoylamino)-N-[(2-chlorophenyl)methyl]-3-[N-(4-ethylphenyl)carbamoyloxy]-2-methylpropanamide] | 4.95 |
| CCc1ccc(NC(=O)OC[C@H](C)N(CC(=O)O)C(=O)NCc2ccccc2Cl)cc1 [2-(N-{(1S)-2-[N-(4-ethylphenyl)carbamoyloxy]-isopropyl}{[(2-chlorophenyl)methyl]amino}carbonylamino)acetic acid] | 5.78 |
| CCc1ccc(NC(=O)OCC(C)(NC(C)=O)C(=O)NCc2ccccc2Cl)cc1 (stereo not drawn) [2-(acetylamino)-N-[(2-chlorophenyl)methyl]-3-[N-(4-ethylphenyl)carbamoyloxy]-2-methylpropanamide] | 5.50 |
| CCc1ccc(NC(=O)OCC(NC(C)=O)C(=O)NCc2ccccc2Cl)cc1 (stereo not drawn) [2-(acetylamino)-N-[(2-chlorophenyl)methyl]-3-[N-(4-ethylphenyl)carbamoyloxy]propanamide] | 4.86 |
| CCc1ccc(NC(=O)OCCN(CCCNC(=O)CNC(=O)OC(C)(C)C)C(=O)NCc2ccccc2Cl)cc1 [2-[(tert-butoxy)carbonylamino]-N-[3-({[(2-chlorophenyl)methyl]amino}-N-{2-[N-(4-ethylphenyl)carbamoyloxy]ethyl}carbonylamino)propyl]acetamide] | 5.39 |
| CCc1ccc(NC(=O)OCCN(CCN(C)C(=O)CN)C(=O)NCc2ccccc2Cl)cc1 [2-amino-N-[2-({[(2-chlorophenyl)methyl]amino}-N-{2-[N-(4-ethylphenyl)carbamoyloxy]ethyl}carbonylamino)ethyl]-N-methylacetamide] | 5.23 |
| CCc1ccc(NC(=O)OCCN(CCNC(=O)CN)C(=O)NCc2ccccc2Cl)cc1 [2-amino-N-[2-({[(2-chlorophenyl)methyl]amino}-N-{2-[N-(4-ethylphenyl)carbamoyloxy]ethyl}carbonylamino)ethyl]acetamide] | 6.05 |
| CCc1ccc(NC(=O)OCCN(CCCNC(=O)CN)C(=O)NCc2ccccc2Cl)cc1 [2-amino-N-[3-({[(2-chlorophenyl)methyl]amino}-N-{2-[N-(4-ethylphenyl)carbamoyloxy]ethyl}carbonylamino)propyl]acetamide] | 6.73 |
| CCc1ccc(NC(=O)OCCN(CCCCNC(=O)CN)C(=O)NCc2ccccc2Cl)cc1 [2-amino-N-[4-({[(2-chlorophenyl)methyl]amino}-N-{2-[N-(4-ethylphenyl)carbamoyloxy]ethyl}carbonylamino)butyl]acetamide] | 6.65 |
| CCc1ccc(NC(=O)OCCC(N)C(=O)NCc2ccccc2Cl)cc1 (stereo not drawn) [2-amino-N-[(2-chlorophenyl)methyl]-4-[N-(4-ethylphenyl)carbamoyloxy]butanamide] | 5.17 |
| CN(CCN(CCOC(=O)Nc1ccc(C(F)(F)F)cc1)C(=O)NCc1ccccc1Cl)C(=O)CN [2-amino-N-{2-[{[(2-chlorophenyl)methyl]amino}-N-(2-{N-[4-(trifluoromethyl)phenyl]carbamoyloxy}ethyl)carbonylamino]ethyl}-N-methylacetamide] | 4.82 |
| CCc1ccc(NC(=O)OCC2(C(=O)NCc3ccccc3Cl)CCN(C(=O)OCCN)CC2)cc1 [2-aminoethyl 4-{N-[(2-chlorophenyl)methyl]carbamoyl}-4-{[N-(4-ethylphenyl)carbamoyloxy]methyl}piperidinecarboxylate] | 6.47 |
| CCc1ccc(NC(=O)OCC(C)(NC(=O)CNC(=O)OC(C)(C)C)C(=O)NCc2ccccc2Cl)cc1 (stereo not drawn) [2-{2-[(tert-butoxy)carbonylamino]acetylamino}-N-[(2-chlorophenyl)methyl]-3-[N-(4-ethylphenyl)carbamoyloxy]-2-methylpropanamide] | 4.71 |
| CCc1ccc(NC(=O)CCC2(C(=O)NCc3ccccc3C)CCN(C(=O)CN)CC2)cc1 [3-(1-(2-aminoacetyl)-4-{N-[(2-methylphenyl)methyl]carbamoyl}(4-piperidyl))-N-(4-ethylphenyl)propanamide] | 4.81 |
| CCc1ccc(NC(=O)OCCN(C)C(=O)CCc2ccccc2Cl)cc1 [3-(2-chlorophenyl)-N-{2-[N-(4-ethylphenyl)carbamoyloxy]ethyl}-N-methylpropanamide] | 6.06 |
| CCc1ccc(NC(=O)OCC2(C(=O)NCc3ccccc3Cl)CCN(C(=O)C(N)CC(=O)O)CC2)cc1 (stereo not drawn) [3-amino-4-(4-{N-[(2-chlorophenyl)methyl]carbamoyl}-4-{[N-(4-ethylphenyl)carbamoyloxy]methyl}piperidyl)-4-oxobutanoic acid] | 5.82 |
| CCc1ccc(NC(=O)OCC(C)(CCNC(=O)CN)C(=O)NCc2ccccc2Cl)cc1 (stereo not drawn) [4-(2-aminoacetylamino)-N-[(2-chlorophenyl)methyl]-2-{[N-(4-ethylphenyl)carbamoyloxy]methyl}-2-methylbutanamide] | 6.55 |
| CCc1ccc(NC(=O)OCC(C)(CCNC(C)=O)C(=O)NCc2ccccc2Cl)cc1 (stereo not drawn) [4-(acetylamino)-N-[(2-chlorophenyl)methyl]-2-{[N-(4-ethylphenyl)carbamoyloxy]methyl}-2-methylbutanamide] | 6.13 |
| CCc1ccc(NC(=O)OCC(C)(CCN)C(=O)NCc2ccccc2Cl)cc1 (stereo not drawn) [4-amino-N-[(2-chlorophenyl)methyl]-2-{[N-(4-ethylphenyl)carbamoyloxy]methyl}-2-methylbutanamide] | 5.76 |
| CCc1ccc(NC(=O)OCC(C)(CCNC(=O)CNC(=O)OC(C)(C)C)C(=O)NCc2ccccc2Cl)cc1 (stereo not drawn) [4-{2-[(tert-butoxy)carbonylamino]acetylamino}-N-[(2-chlorophenyl)methyl]-2-{[N-(4-ethylphenyl)carbamoyloxy]methyl}-2-methylbutanamide] | 5.89 |
| NC(=O)c1ccc(NC(=O)OCC2(C(=O)NCc3ccccc3Cl)CCOCC2)cc1 [4-{[(4-{N-[(2-chlorophenyl)methyl]carbamoyl}-2H-3,4,5,6-tetrahydropyran-4-yl)methoxy]carbonylamino}benzamide] | 4.79 |
| CCc1ccc(NC(=O)OCC2(C(=O)NCc3ccccc3Cl)CCN(C(=O)C(N)CN)CC2)cc1 (stereo not drawn) [(1-(2,3-diaminopropanoyl)-4-{[N-(4-ethylphenyl)carbamoyloxy]methyl}(4-piperidyl))-N-[(2-chlorophenyl)methyl]carboxamide] | 5.99 |
| CCc1ccc(NC(=O)OCC2(C(=O)NCc3ccccc3Cl)CCN(C(=O)C(O)CO)CC2)cc1 (stereo not drawn) [(1-(2,3-dihydroxypropanoyl)-4-{[N-(4-ethylphenyl)carbamoyloxy]methyl}(4-piperidyl))-N-[(2-chlorophenyl)methyl]carboxamide] | 6.91 |
| CCc1ccc(NC(=O)OCC2(C(=O)NCc3ccccc3Cl)CCN(C(=O)C(N)CCN)CC2)cc1 (stereo not drawn) [(1-(2,4-diaminobutanoyl)-4-{[N-(4-ethylphenyl)carbamoyloxy]methyl}(4-piperidyl))-N-[(2-chlorophenyl)methyl]carboxamide] | 6.23 |
| CCc1ccc(NC(=O)OCC2(C(=O)NCc3ccccc3Cl)CCN(C(=O)C(N)CCCN)CC2)cc1 (stereo not drawn) [(1-(2,5-diaminopentanoyl)-4-{[N-(4-ethylphenyl)carbamoyloxy]methyl}(4-piperidyl))-N-[(2-chlorophenyl)methyl]carboxamide] | 5.83 |
| CCc1ccc(NC(=O)OCC2(C(=O)NCc3ccccc3Cl)CCN(C(=O)C(C)(C)N)CC2)cc1 [(1-(2-amino-2-methylpropanoyl)-4-{[N-(4-ethylphenyl)carbamoyloxy]methyl}(4-piperidyl))-N-[(2-chlorophenyl)methyl]carboxamide] | 6.17 |
| CCc1ccc(NC(=O)OCC2(C(=O)NCc3ccccc3Cl)CCN(C(=O)C(N)CC#N)CC2)cc1 (stereo not drawn) [(1-(2-amino-3-cyanopropanoyl)-4-{[N-(4-ethylphenyl)carbamoyloxy]methyl}(4-piperidyl))-N-[(2-chlorophenyl)methyl]carboxamide] | 6.10 |
